Values of other authors, collected in patent US7115654B2, “Caspase-1 inhibitors and methods for their use” (Sunesis Pharmaceuticals, Inc., priority 2002, dated 2006).

System: embryonic nigral cell suspension

**Q.** For Ac-YVAD-cmk, which functional recovery (hemiparkinsonian rats) is on record?
**A.** Its functional recovery is “substantially improved”.

**Q.** What about the “survival of dopaminergic neurons” value (neurons grafted to hemiparkinsonian rats) of the same substance?
**A.** Its value is “increased”.

**Q.** And the apoptosis in transplants (treatment of the embryonic nigral cell suspension)?
**A.** The apoptosis in transplants was “reduced”.

**Q.** And the DNA fragmentation (treatment of the embryonic nigral cell suspension, in transplants)?
**A.** The DNA fragmentation was “mitigated”.
